Assay results reported in article PMC11943946, “Anti-Neuroinflammatory Eremophilane Sesquiterpenoids from Marine-Derived Fungus Phoma sp. DXH009” (Marine Drugs, 2025).

Legend:
[1] = tested on: LPS-stimulated microglia BV2 cells; assay: Cellular NO production in LPS-stimulated BV2 microglia; assay type: cell-based; conditions: for NO inhibition (SAR statement) / reduction in NO content: 20 μM; for NO inhibition (SAR statement): relative to analogues with intact C-6–C-7 / C-11–C-12 motifs; for reduction in NO content: vs LPS control cells
Procedure: (§1) The cellular NO levels were determined using a Nitric Oxide Assay Kit with DAF-FM DA (Beyotime, Nantong, China). A total of 5000 cells were planted in 96-well plates and maintained for 24 h. Then, they were induced with 1 μg/mL lipopolysaccharide (LPS) in the presence or absence of compounds at a final concentration of 20 μM for 24 h. Untreated wells were used as control. Then, supernatant of the culture medium was investigated with a Nitric Oxide Assay Kit with DAF-FM DA (Beyotime, S0020S) per the manufacturer’s instruction. Cells were stained with 2 µM hochest 33,342 at room temperature for 10 min, then cell numbers were auto-counted using the high-content screening system. The cell number in the LPS control group was set as 100%, and the relative cell survival ratios were calculated.

APP/PS1 transgenic mice = tested on: APP/PS1 transgenic mice; design: method as in PMID 39004599, PMID 25686105; conditions: cited from earlier work
[2] = tested on: early-stage PD participants; design: method as in PMID 38504306; conditions: Phase II trial NCT04542915; cited from earlier work
LPS-treated mice = assay: LPS-induced neuroinflammation mouse model (cortex and hippocampus); assay type: in vivo; conditions: intraperitoneal; for expression levels of IBA1 in cortex / inflammatory markers iNOS, COX2, IL-1β, IL-6 in cortex (mRNA and protein) / protein level of ARG 1 in cortex: 5 at 10, 20, 40 mg/kg or Dex 15 mg/kg
Procedure: (§2) Cells or tissues were lysed with RIPA lysis buffer containing protease and phosphatase inhibitor cocktail and total protein was extracted and quantified by using a protein determination kit (Thermo Fisher Scientific, Cat#23227, Beijing, China). Protein samples were prepared by centrifugation at the speed of 12,000× g for 30 min at 4 °C; the supernatant was boiled at 95 °C for 10 min and then subjected to SDS-PAGE. An amount of 15 µg of total protein was separated by electrophoresis in a 10% SDS-polyacrylamide gel and transferred to a PVDF membrane (Thermo Fisher Scientific, Cat#88520, Beijing, China). After blocking, the full membranes were cropped according to the molecular weight of examined proteins and incubated with antibodies at 4 °C overnight. The used antibodies were listed as follows: anti-iNOS (Abcam, ab178945, Cambridge, UK), anti-COX2 (Affinity, AF7003, Changzhou, China), anti-actin (Affinity Biosciences, AF7018, Changzhou, China), anti-ARG1 (Proteintech, 66129, Wuhan, China), anti-IL-1β (Proteintech, 26048, Wuhan, China), anti-GAPDH (Bioss, bs-41373R, Beijing, China), anti-IL-6 (Affinity, DF6087, Changzhou, China), anti-TNFα (Affinity, AF7014, Changzhou, China), anti-IBA1 (Affinity, DF6442, Changzhou, China). The membranes were washed to remove unbound antibodies and then incubated with HRP-conjugated secondary antibodies at room temperature for 45 min. Protein bands were visualized one by one with an ECL kit (Millipore, Cat#6-201BP, Beijing, China). The uncropped immunoblot data were uploaded as a Supplementary File. Densitometry analysis was performed using Image J Software, Version 1.54p (Rawak Software Inc., Stuttgart, Germany) relative to the loading control, β-actin; GAPDH; or tubulin. The average protein levels of control group cells or control mice from each independent experiment or mice were set as 1, and relative changes were calculated.
Male, 4-week-old C57BL/6J mice were obtained from Peking SiPeiFu Biotechnology Co., Ltd. (Beijing, China), with quality certificate number No.110324241107423512. After acclimation, mice were weighted and divided randomly into 6 groups, including control, LPS control mice, LPS + dexamethasone (Dex, 15 mg/kg), and LPS + HN-005 (10, 20, 40 mg/kg). Mice were intraperitoneally injected with dexamethasone or compound 5 for 2 days, while the control and LPS control group was intraperitoneally injected with an identical volume of 200 μL 0.9% saline. A total of 6 mg/kg LPS was intraperitoneally injected on the second day beyond the control group. After treatment, the mice were weighed and euthanized for brain anatomy.
Mice were anesthetized and their chest dissected to expose the heart sufficiently. The infusion needle penetrated the ventriculus sinister by about 0.5 cm and perfused it with 40 mL sterile PBS buffer until the liver turned white. Then, the prefrontal cortex and hippocampus were separated and preserved. For the immunochemistry assay, the cortex and hippocampus were fixed at 4% PFA at room temperature for 2–4 days. The fixed brain was embedded into paraffin and sectioned at 5 μm in the coronal plane using a sliding microtone (Leica, CM1950, Weztlar, Germany), then blocked with 5% goat serum TBS buffer at room temperature for one hour. After blocking, tissue slides were incubated with the first antibody against IBA1 (Affinity, DF6442, Changzhou, China) at 4 °C for 16 h, then rinsed with TBST three times and incubated with Alex flour 555 conjugated goat anti-rabbit secondary antibody (1:500) and DAPI (1:1000) at 4 °C overnight. A section incubated only with the secondary antibody was used as a negative control. For HE staining, the section was stained with an H&E staining kit (Servicebio, G1076, Wuhan, China) per the manufacturer’s instruction. Fluorescence images were acquired using a confocal microscope (Olympus, Tokyo, Japan). […]

[3] = tested on: LPS-activated BV-2 microglia; design: method as in PMID 34605647; conditions: read-out: IC50 suppressing nitric oxide production; cited from earlier work
[4] = tested on: LPS-treated BV2 microglia cells; assay: Inflammatory markers in LPS-treated microglia cells (Western blot); assay type: cell-based; conditions: 2.5, 5, 10 μM
Procedure: as §2, with “The membranes were washed to remove unbound antibodies and then incubated with HRP-conjugated secondary antibodies at room temperature for 45 min. Protein bands were visualized one by one with an ECL kit (Millipore, Cat#6-201BP, Beijing, China). The uncropped immunoblot data were uploaded as a Supplementary File. Densitometry analysis was performed using Image J Software, Version 1.54p (Rawak Software Inc., Stuttgart, Germany) relative to the loading control, β-actin; GAPDH; or tubulin.” left out

[5] = BV2 cell viability / proliferation (CCK-8, cell count); assay type: cell-based; conditions: mouse; BV2 cells, 24 h; read-out: IC50 against BV2 cell proliferation (cytotoxicity)
Procedure: as §1
(§3) BV2 microglial cells were seeded into 96-well plates at a density of 1 × 10^4 cells/well and allowed to adhere for 24 h. Cells were then exposed to different concentrations (20 μM for 1–9; 0, 1, 5, 10, 20, 50, 100 μM for 5) of the test compounds (1–9) in triplicate, with DMSO concentrations normalized across all treatment groups. After 24 h incubation, 10 μL CCK-8 reagent (Beyotime Biotechnology, Nantong, China) was added to each well, followed by 30 min incubation at 37 °C. Absorbance at 450 nm was quantified using a BioTek microplate reader (BioTek, Winooski, VT, USA), with cell viability calculated relative to vehicle-treated controls.

Vero cells = tested on: Vero cells; design: method as in PMID 25734623; conditions: noncancerous Vero cells; read-out: IC50 toxicity; cited from earlier work
NF-κB p65 = NF-κB p65 signaling pathway (Western blot); assay type: cell-based; conditions: 2.5, 5, 10 μM, LPS-treated BV2 cells
Procedure: as §2, with “The membranes were washed to remove unbound antibodies and then incubated with HRP-conjugated secondary antibodies at room temperature for 45 min. Protein bands were visualized one by one with an ECL kit (Millipore, Cat#6-201BP, Beijing, China). The uncropped immunoblot data were uploaded as a Supplementary File. Densitometry analysis was performed using Image J Software, Version 1.54p (Rawak Software Inc., Stuttgart, Germany) relative to the loading control, β-actin; GAPDH; or tubulin.” left out

Ehrlich carcinoma cells = tested on: Ehrlich carcinoma cells; design: method as in doi:10.1007/s10600-014-0836-9; conditions: cited from earlier work
Echinochloa crus-galli = tested on: Echinochloa crus-galli; design: method as in PMID 25603174; conditions: read-out: IC50 herbicidal effect (radicle growth); cited from earlier work
[6] = tested on: Amaranthus hypochondriacus; design: method as in PMID 25603174; conditions: read-out: IC50 herbicidal effect (radicle growth); cited from earlier work
Lactuca sativa = tested on: Lactuca sativa; design: method as in doi:10.1584/jpestics.14.223; conditions: 250 ppm; cited from earlier work
[7] = tested on: LPS-treated BV2 microglia cells; assay: Microglia polarization markers ARG 1 and iNOS (immunofluorescence, immunoblot); assay type: cell-based; conditions: 2.5, 5, 10 μM, LPS 0.5 μg/mL, 24 h
Procedure: Cells or tissues were lysed with RIPA lysis buffer containing protease and phosphatase inhibitor cocktail and total protein was extracted and quantified by using a protein determination kit (Thermo Fisher Scientific, Cat#23227, Beijing, China). Protein samples were prepared by centrifugation at the speed of 12,000× g for 30 min at 4 °C; the supernatant was boiled at 95 °C for 10 min and then subjected to SDS-PAGE. An amount of 15 µg of total protein was separated by electrophoresis in a 10% SDS-polyacrylamide gel and transferred to a PVDF membrane (Thermo Fisher Scientific, Cat#88520, Beijing, China). After blocking, the full membranes were cropped according to the molecular weight of examined proteins and incubated with antibodies at 4 °C overnight. […] The average protein levels of control group cells or control mice from each independent experiment or mice were set as 1, and relative changes were calculated.
For the immunofluorescence assay, cells were fixed with pre-cold ethanol at –20 °C, then blocked and incubated with anti-iNOS (Abcam, ab178945) and mouse anti-ARG 1 (Proteintech, 66129) at 4 °C overnight. […] Fluorescence images were acquired using a confocal microscope (Olympus, Tokyo, Japan).

BV2 microglial cells = assay: BV2 cell viability / proliferation (CCK-8, cell count); assay type: cell-based; conditions: 20 µM
Procedure: as §1, §3

AD mice = tested on: AD mice; design: method as in PMID 38616356, PMID 31590042; conditions: relative to untreated AD mice; cited from earlier work
NF-κB signaling = tested on: NF-κB signaling; design: method as in PMID 38616356, PMID 31590042; conditions: BV2 microglia; read-out: IC50 suppressing NF-κB signaling; cited from earlier work

C=C(C)[C@]1(O)C[C@@]2(C)C(=CC1=O)CC[C@@H](O)[C@@H]2C [Compound 3, Hydroxypetasol]
NO inhibition (SAR statement) [1]: high reduction in NO inhibition

CC(C)(O)c1coc(S(=O)(=O)NC(=O)Nc2c3c(cc4c2CCC4)CCC3)c1 [MCC950]
attenuation of hippocampal IL-1β production (APP/PS1 transgenic mice): 68.5%

Oc1ccc(/C=C/c2cc(O)cc(O)c2)cc1 [Resveratrol]
reduction in CSF TNF-α levels [2]: 31.6%

CC1C(O)CCC2=CC(=O)C(C(C)(C)O)=CC21C (stereo not shown) [Compound 2, Phomenone D]
NO inhibition (SAR statement) [1]: high reduction in NO inhibition

C[C@@H]1C[C@H]2[C@@H]3CCC4=CC(=O)C=C[C@]4(C)[C@@]3(F)[C@@H](O)C[C@]2(C)[C@@]1(O)C(=O)CO [Dex, dexamethasone, reference compound]
reduction in NO content ([1]; 24 h): 77% | expression levels of IBA1 in cortex (LPS-treated mice): markedly decreased the expression levels of IBA1 | inflammatory markers iNOS, COX2, IL-1β, IL-6 in cortex (mRNA and protein) (LPS-treated mice): efficiently suppressed the activation of these inflammatory markers | protein level of ARG 1 in cortex (LPS-treated mice): no induction effect was observed

C=C1CO[C@@]2(O)CC3=CC(=O)C(O)=C(C)[C@@]3(C)C[C@@]12O [septoreremophilane F]
IC50 [3]: 12 ± 0.32 µM

C=C(C)[C@@]12O[C@@H]1[C@@]1(C)C(=C[C@@H]2O)CC[C@@H](O)[C@@H]1C [Compound 5, dihydrosporogen AO-1]
level of inflammatory markers IBA1, COX-2, TNF-α, IL-1β, IL-6 [4]: efficiently reversed the increases in the level of inflammatory markers | reduction in NO content ([1]; 24 h): 78% | EC50 ([1]; Mus musculus, BV-2, LPS-treated BV2 microglial cells, 24 h, read-out: EC50 in decreasing cellular NO production): 3.11 µM | selectivity index (SI) ([1]; cytotoxicity IC50 vs NO EC50, BV2 cells): 12.2 | IC50 [5]: 38 µM | IC50 (Vero cells): 24000 µM | activation of NF-κB axis (phosphorylated NF-κB p65) (NF-κB p65): dose-dependently reversed the activation of the NF-κB axis | total level of NF-κB p65 (NF-κB p65): no major change | ED50 cytotoxicity (Ehrlich carcinoma cells): 400 µM | IC50 (Echinochloa crus-galli): 300 µM | expression levels of IBA1 in cortex (LPS-treated mice): markedly decreased the expression levels of IBA1 | inflammatory markers iNOS, COX2, IL-1β, IL-6 in cortex (mRNA and protein) (LPS-treated mice): efficiently suppressed the activation of these inflammatory markers | protein level of ARG 1 in cortex (LPS-treated mice): dose-dependently increased the protein level of ARG 1 | neuroinflammation in hippocampus tissue (LPS-treated mice; 10, 20, 40 mg/kg): inhibits neuroinflammation in the hippocampus tissue | IC50 [6]: 170 µM | inhibition (radicle growth) (Lactuca sativa): 70% | iNOS and ARG 1 protein levels [7]: dose-dependently reversed iNOS elevations and ARG 1 | ratio of ARG 1 to iNOS [7]: corrected the decreased ratio of ARG 1 to iNOS

C=C(C)C1=C[C@@]2(C)C(=CC1=O)CC[C@@H](O)[C@@H]2C [Compound 9, 6-dehydropetasol]
proliferation inhibition (cytotoxicity) (BV2 microglial cells): 35–85%

C=C(C)[C@@H]1C[C@@]2(C)C(=CC1=O)CC[C@@H](O)[C@@H]2C [Compound 8, petasol]
proliferation inhibition (cytotoxicity) (BV2 microglial cells): 35–85%

COc1cc(/C=C/C(=O)CC(=O)/C=C/c2ccc(O)c(OC)c2)ccc1O [curcumin]
improvement in radial arm maze errors (AD mice): 37.2% | IC50 (NF-κB signaling): 4.7 µM
